Data on two compounds can be found in ChEMBL document CHEMBL3638844, “Heterocyclic kinase inhibitors” (2014).

Assay [1] has as its target Serine/threonine-protein kinase pim-1 (Homo sapiens, UniProt P11309). In words: ATP Depletion Assay: The activity of PIM1 is measured using a luciferase-luciferin based ATP detection reagent to quantify ATP depletion resulting from kinase-catalyzed phosphoryl transfer to a peptide substrate. Compounds to be tested are dissolved in 100% DMSO and directly distributed into white 384-well plates at 0.5 uA per well. To start the reaction, 10 ul of 5 nM Pim1 kinase and 80 uM BAD peptide (RSRHSSYPAGT-OH) in assay buffer (50 mM HEPES pH 7.5, 5 mM MgCl2, 1 mM DTT, 0.05% BSA) is added into each well. After 15 minutes, 10 ul of 40 uM ATP in assay buffer is added. Final assay concentrations are 2.5 nM PIM1, 20 uM ATP, 40 uM BAD peptide and 2.5% DMSO. The reaction is performed until approximately 50% of the ATP is depleted, then stopped with the addition of 20 ul KinaseGlo Plus (Promega Corporation) solution. The stopped reaction is incubated for 10 minutes and the remaining ATP detected via luminescence on the Victor2 (Perkin Elmer). Background: Kinase-Glo reads ATP consumption through a luciferase reaction.

Assay [2] has as its target Serine/threonine-protein kinase pim-2 (Homo sapiens, UniProt Q9P1W9). In words: ATP Depletion Assay: The activity of PIM2 is measured using a luciferase-luciferin based ATP detection reagent to quantify ATP depletion resulting from kinase-catalyzed phosphoryl transfer to a peptide substrate. Compounds to be tested are dissolved in 100% DMSO and directly distributed into white 384-well plates at 0.5 ul per well. To start the reaction, 10 ul of 10 nM Pim2 kinase and 20 uM BAD peptide (RSRHSSYPAGT-OH) in assay buffer (50 mM HEPES pH 7.5, 5 mM MgCl2, 1 mM DTT, 0.05% BSA) is added into each well. After 15 minutes, 10 ul of 8 uM ATP in assay buffer is added. Final assay concentrations are 5 nM PIM2, 4 uM ATP, 10 uM BAD peptide and 2.5% DMSO. The reaction is performed until approximately 50% of the ATP is depleted, then stopped with the addition of 20 ul KinaseGlo Plus (Promega Corporation) solution. The stopped reaction is incubated for 10 minutes and the remaining ATP detected via luminescence on the Victor2 (Perkin Elmer).

The target in assay [3] is Serine/threonine-protein kinase pim-3 (Homo sapiens, UniProt Q86V86). In words: ATP Depletion Assay: The activity of PIM3 is measured using a luciferase-luciferin based ATP detection reagent to quantify ATP depletion resulting from kinase-catalyzed phosphoryl transfer to a peptide substrate. Compounds to be tested are dissolved in 100% DMSO and directly distributed into white 384-well plates at 0.5 uA per well. To start the reaction, 10 ul of 10 nM Pim3 kinase and 200 uM BAD peptide (RSRHSSYPAGT-OH) in assay buffer (50 mM HEPES pH 7.5, 5 mM MgCl2, 1 mM DTT, 0.05% BSA) is added into each well. After 15 minutes, 10 ul of 80 uM ATP in assay buffer is added. Final assay concentrations are […], 40 uM ATP, 100 uM BAD peptide and 2.5% DMSO. The reaction is performed until approximately 50% of the ATP is depleted, then stopped by the addition of 20 ul KinaseGlo Plus (Promega Corporation) solution. The stopped reaction is incubated for 10 minutes and the remaining ATP detected via luminescence on the Victor2 (Perkin Elmer).

Sequence of Serine/threonine-protein kinase pim-2 (Q9P1W9 whole entry): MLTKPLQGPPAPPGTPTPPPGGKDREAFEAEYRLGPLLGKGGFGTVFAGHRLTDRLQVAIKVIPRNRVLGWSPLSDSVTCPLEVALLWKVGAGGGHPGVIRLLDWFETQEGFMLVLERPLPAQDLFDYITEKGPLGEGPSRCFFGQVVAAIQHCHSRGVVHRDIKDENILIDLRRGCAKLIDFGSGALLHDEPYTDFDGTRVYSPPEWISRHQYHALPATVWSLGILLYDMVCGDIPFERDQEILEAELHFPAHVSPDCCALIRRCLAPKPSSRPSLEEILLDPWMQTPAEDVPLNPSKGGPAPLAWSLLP
Sequence of Serine/threonine-protein kinase pim-1 (P11309 whole entry): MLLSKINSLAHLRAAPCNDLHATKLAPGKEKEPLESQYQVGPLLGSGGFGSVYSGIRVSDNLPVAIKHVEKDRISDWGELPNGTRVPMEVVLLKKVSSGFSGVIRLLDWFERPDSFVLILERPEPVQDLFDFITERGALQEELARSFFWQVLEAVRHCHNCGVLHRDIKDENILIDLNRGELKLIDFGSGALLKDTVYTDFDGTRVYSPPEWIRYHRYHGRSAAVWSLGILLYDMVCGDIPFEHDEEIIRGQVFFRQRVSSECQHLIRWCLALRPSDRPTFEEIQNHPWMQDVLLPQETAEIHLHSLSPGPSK

Broadly, the IC50 is the concentration that gives 50% inhibition. Take `N[C@H]1C[C@@H](CO)CN(c2ccncc2Nc2cccc3ccc(-c4c(F)cccc4F)nc23)C1`: the values for the IC50 in assay [1] and in assay [2] were 0.796 µM and 0.286 µM, respectively.
Turning to `N[C@H]1C[C@@H](O)CN(c2ccncc2Nc2cccc3ccc(-c4c(F)cccc4F)nc23)C1`, the figures for the IC50 in assay [3], in assay [1] and in assay [2] were 0.061 µM, 0.589 µM and 0.512 µM, respectively.
